The values that follow come from US11559538B2, “Substituted 1,2-oxaborolan-2-ols as PDE4 inhibitors” (Pfizer Inc., priority 2018, dated 2023).

One assay has as its system IFNγ. The experiment in a line: Cytokine assay: IFNγ release from PHA-L stimulated human PBMCs. Format: cell-based. Here is the method: (§1) Cytokine inhibitory activity is determined by measuring the effect of test agent on the release of the cytokines IL-4, IL-13 and IFNγ from human peripheral blood mononuclear cells (PBMCs) stimulated with the T-cell mitogen phytohemagglutinin-L (PHA-L). At the time of assay, human PBMCs (Astarte Biologics) are removed from cryopreservation, thawed quickly at 37° C., diluted in assay medium (RPMI-Gibco 1640 medium, 10% heat inactivated fetal bovine serum (HIFBS), 2 mM glutamine and 10 mM HEPES pH 7.4) and then centrifuged at 250×g for 5 minutes. The resulting cell pellet is re-suspended in assay medium to a concentration of approximately 5×10^6 cells/mL and 50 μL of this cell suspension (approximately 250,000 cells) is added to each well of a 384-well cell culture microtiter plate (Perkin Elmer). Varying concentrations of test compound are then diluted in assay medium and added to the assay plate wells in a volume of 25 μL. After −10 minutes at room temperature (21° C.) the cells are stimulated by the addition of 25 μL of PHA-L (14 μg/mL; Millipore) and the assay plate is placed in an incubator at 37° C. in a humidified environment in 5% carbon dioxide. The final assay conditions are approximately 250,000 human PBMCs per well in assay medium containing 3.5 μg/mL PHA-L and the indicated final concentration of test compound (approximately 10 μM to […] by 4-fold dilution). The final concentration of DMSO in the assay is approximately 0.25%. After 48 hours, the assay plate is removed from the incubator and centrifuged at 250×g for 5 minutes. A portion of the resulting cell supernatant is then used to determine the amount of IL-4, IL-13 and IFNγ in each well. Cytokine measurements are made using human IL-4, IL-13 or IFNγ HTRF assay kits (CisBio) following the manufacturer's assay protocol. The concentrations and resulting effect values for tested compounds are plotted and the concentration of compound required for 50% effect (IC50) is determined with a four-parameter logistic dose response equation (E-WorkBook, ID Business Solutions Ltd.) and shown in Table 17.

The subject of the next assay is IL-4. The experiment in a line: Cytokine assay: IL-4 release from PHA-L stimulated human PBMCs. Format: cell-based. To be noted: read-out: IL4 IC50. The method, then:
as §1

Assay [1] has as its target PDE4B (aa 152-484, Uniprot ID Q07343) (Homo sapiens (Human), UniProt Q07343). As to the kind of experiment: PDE4 SPA assay (scintillation proximity assay). Format: biochemical. Conditions: read-out: PDE4B2 IC50. The method, then:
Phosphodiesterase (PDE) activity is determined by measuring the effect of a test agent on the activity of the PDE4B enzyme in a scintillation proximity assay (SPA). At the time of assay, approximately 30 μL of PDE4B (aa 152-484, Uniprot ID Q07343) in 50 mM Tris pH 7.5, 1.3 mM MgC2, 0.004% Brij 35 is added to a 384 well white clear bottom polystyrene plate (Corning) containing 1 μL of varying concentrations of test compound. After −10 minutes at room temperature (RT; 21° C.), the assay is initiated by the addition of 20 μL of a mixture of ^3H-labeled (adenosine 3′, 5′-cyclic phosphate, ammonium salt, [2,8-^3H]; Perkin Elmer) and unlabeled cAMP. The final assay conditions are approximately 81.6 pM PDE4B in 50 mM Tris pH 7.5, 1.3 mM MgCl2, 0.004% Brij 35, 1 μM ^3H-labeled/unlabeled cAMP (1425 dpm/pmol) and the indicated final concentration of test compound (approximately 10 μM to […] by 4-fold dilution). The final concentration of DMSO in the assay is approximately 2.0%. After 30 minutes at RT, the assay is terminated by the addition of approximately 20 μL of an aqueous solution of PDE YSI SPA beads (8 mg/mL in water; Perkin Elmer). The beads are allowed to settle for at least 2 hours and the plate is then counted on a MicroBeta2 (Perkin Elmer). The concentrations and resulting effect values for the tested compound are plotted and the concentration of compound required for 50% effect (IC50) is determined with a four-parameter logistic dose response equation (E-WorkBook, ID Business Solutions Ltd.) and shown in Table 17.
Background: SPA uses beads or plates that emit light when radiolabelled molecules are held near them.

A further assay concerns IL-13. As to the kind of experiment: Cytokine assay: IL-13 release from PHA-L stimulated human PBMCs. Format: cell-based. To be noted: read-out: IL13 IC50. The method, then: as §1

Structures are written as SMILES. Like-named read-outs stand apart in the source and are kept apart here.

Sequence of PDE4B (aa 152-484, Uniprot ID Q07343) (Q07343 324-656): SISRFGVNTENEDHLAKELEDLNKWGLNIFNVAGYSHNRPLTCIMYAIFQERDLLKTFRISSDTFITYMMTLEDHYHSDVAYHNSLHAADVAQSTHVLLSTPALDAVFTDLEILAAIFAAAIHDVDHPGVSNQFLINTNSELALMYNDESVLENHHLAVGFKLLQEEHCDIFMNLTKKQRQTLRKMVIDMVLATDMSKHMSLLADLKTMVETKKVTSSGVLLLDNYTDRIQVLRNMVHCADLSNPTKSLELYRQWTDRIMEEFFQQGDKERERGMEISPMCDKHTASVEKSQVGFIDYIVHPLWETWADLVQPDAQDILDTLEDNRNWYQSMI

With `COc1ccc(-c2cncc(C3COB(O)C3)c2)cc1OC` (single isomer, unassigned) [Example 1, 4-(5-(3,4-dimethoxyphenyl)pyridin-3-yl)-1,2-oxaborolan-2-ol], the IC50 (as a rule, the concentration needed to halve the response being measured) with IFNγ amounted to 2.98 nM; in the assay on IL-4, 14.3 nM; in assay [1], 3.16 nM; in the assay on IL-13, 284 nM.
For `COc1ccc(-c2cncc(C3COB(O)C3)c2)cc1OC(C)C` (single isomer, unassigned) [Example 6, 4-(5-(3-isopropoxy-4-methoxyphenyl)pyridin-3-yl)-1,2-oxaborolan-2-ol], in that order: 0.72 nM, 17.6 nM, 1.05 nM and 283 nM.
On to `COc1ccc(-c2cncc(C3COB(O)C3)c2)cc1OC1CC1` (single isomer, unassigned) [Example 7, 4-(5-(3-cyclopropoxy-4-methoxyphenyl)pyridin-3-yl)-1,2-oxaborolan-2-ol], for which the IC50 in the assay on IFNγ was determined as 0.71 nM; in the assay with IL-4 it was 7.76 nM; in assay [1], 0.97 nM; in the assay with IL-13, 289 nM.
Take `COc1ccc(-c2cncc(C3COB(O)C3)c2)cc1OCCO` (single isomer, unassigned) [Example 8, 4-(5-(3-(2-hydroxyethoxy)-4-methoxyphenyl)pyridin-3-yl)-1,2-oxaborolan-2-ol]: the IC50 in the assay with IFNγ was determined as 1.2 nM; in the assay with IL-4 it was 0.76 nM; in assay [1], 2.42 nM; with IL-13 it was 25 nM.
In the case of `COc1ccc(-c2cncc(C3COB(O)C3)c2)cc1OCCCO` (single isomer, unassigned) [Example 9, 4-(5-(3-(3-hydroxypropoxy)-4-methoxyphenyl)pyridin-3-yl)-1,2-oxaborolan-2-ol], the IC50 in the assay on IFNγ (Homo sapiens, PBMC) is 1.87 nM; in the assay with IL-4 (Homo sapiens, PBMC), 3.63 nM; in assay [1], 1.26 nM; in the assay on IL-13 (Homo sapiens, PBMC), 265 nM.
For the compound `CCOc1c(OC)ccc(-c2cncc(C3COB(O)C3)c2)c1C(F)F` (single isomer, unassigned) [Example 11, 4-(5-(2-(difluoromethyl)-3-ethoxy-4-methoxyphenyl)pyridin-3-yl)-1,2-oxaborolan-2-ol], the IC50 in the assay with IFNγ came to 68.3 nM; in the assay on IL-4, 141 nM; in assay [1], 33.5 nM; with IL-13, 10000 nM.
For `CCOc1cc(-c2cncc(C3COB(O)C3)c2)cc(F)c1OC` (single isomer, unassigned) [Example 12, 4-(5-(3-ethoxy-5-fluoro-4-methoxyphenyl)pyridin-3-yl)-1,2-oxaborolan-2-ol], in that order: 0.99 nM, 2.32 nM, 1.08 nM and 162 nM.
`CCOc1cc(-c2cncc(C3COB(O)C3)c2)cc(Cl)c1OC` (single isomer, unassigned) [Example 13, 4-(5-(3-chloro-5-ethoxy-4-methoxyphenyl)pyridin-3-yl)-1,2-oxaborolan-2-ol]: the IC50 with IFNγ stood at 4.89 nM; with IL-4, 5.98 nM; in assay [1], 0.97 nM; in the assay with IL-13, 166 nM.
For the compound `CCOc1cc(-c2cncc(C3COB(O)C3)c2)c(F)cc1OC` (single isomer, unassigned) [Example 14, 4-(5-(5-ethoxy-2-fluoro-4-methoxyphenyl)pyridin-3-yl)-1,2-oxaborolan-2-ol], the IC50 was 1.85 nM in the assay on IFNγ (Homo sapiens, PBMC); 3.21 nM in the assay on IL-4 (Homo sapiens, PBMC); 1.5 nM in assay [1]; 91 nM in the assay with IL-13 (Homo sapiens, PBMC).
The corresponding values for `CCOc1cc(-c2cncc(C3COB(O)C3)c2)c(Cl)cc1OC` (single isomer, unassigned) [Example 15, 4-(5-(2-chloro-5-ethoxy-4-methoxyphenyl)pyridin-3-yl)-1,2-oxaborolan-2-ol] are 0.71 nM, 1.41 nM, 1.57 nM and 136 nM.
For the compound `CCCOc1nc(-c2cncc(C3COB(O)C3)c2)c(F)cc1OC` (single isomer, unassigned) [Example 16, 4-(3-fluoro-5-methoxy-6-propoxy-[2,3′-bipyridin]-5′-yl)-1,2-oxaborolan-2-ol], the IC50 in the assay on IFNγ amounted to 0.82 nM; with IL-4 it was 0.54 nM; in assay [1], 0.05 nM; in the assay on IL-13 it was 126 nM.
`CCCOc1cc(-c2cncc(C3COB(O)C3)c2)ccc1OC(F)F` (single isomer, unassigned) [Example 17, 4-(5-(4-(difluoromethoxy)-3-propoxyphenyl)pyridin-3-yl)-1,2-oxaborolan-2-ol]: the IC50 with IFNγ (Homo sapiens, PBMC) came out at 0.47 nM; in the assay with IL-4 (Homo sapiens, PBMC), 0.65 nM; in assay [1], 0.28 nM; with IL-13 (Homo sapiens, PBMC), 138 nM.
`CCCOc1cc(-c2cncc(C3COB(O)C3)c2)cnc1OC` (single isomer, unassigned) [Example 18, 4-(6′-methoxy-5′-propoxy-[3,3′-bipyridin]-5-yl)-1,2-oxaborolan-2-ol]: the IC50 came to 2.23 nM with IFNγ (Homo sapiens, PBMC); 1.91 nM with IL-4 (Homo sapiens, PBMC); 0.74 nM in assay [1]; 218 nM with IL-13 (Homo sapiens, PBMC).
The corresponding values for `CCOc1cc(-c2cc([C@@H]3COB(O)C3)cnc2C)ccc1OC` (single isomer, unassigned) [Example 19] are 1.68 nM, 2.56 nM, 2.96 nM and 1480 nM.
As to `CCOc1cc(-c2cc([C@H]3COB(O)C3)cnc2C)ccc1OC` (single isomer, unassigned) [Example 20], the IC50 was 103 nM in the assay with IFNγ (Homo sapiens, PBMC); 86.8 nM with IL-4 (Homo sapiens, PBMC); 26.9 nM in assay [1]; 8790 nM with IL-13 (Homo sapiens, PBMC).
In the case of `CCOc1cc(-c2cncc(C3COB(O)C3)c2C)ccc1OC` (single isomer, unassigned) [Example 21, 4-(5-(3-ethoxy-4-methoxyphenyl)-4-methylpyridin-3-yl)-1,2-oxaborolan-2-ol], the IC50 came to 1.35 nM in the assay on IFNγ, 0.84 nM in the assay on IL-4, 0.64 nM in assay [1] and 159 nM with IL-13.
Regarding `CCCOc1cc(-c2nc(C)cc(C3COB(O)C3)n2)ccc1OC` (single isomer, unassigned) [Example 22, 4-(2-(4-methoxy-3-propoxyphenyl)-6-methylpyrimidin-4-yl)-1,2-oxaborolan-2-ol], the IC50 is 1.43 nM in the assay with IFNγ (Homo sapiens, PBMC); 1.75 nM in the assay with IL-4 (Homo sapiens, PBMC); 7.89 nM in assay [1]; 257 nM with IL-13 (Homo sapiens, PBMC).
With `CCCOc1cc(-c2nc(C3COB(O)C3)cc(C(F)(F)F)n2)ccc1OC` (single isomer, unassigned) [Example 23, 4-(2-(4-methoxy-3-propoxyphenyl)-6-(trifluoromethyl)pyrimidin-4-yl)-1,2-oxaborolan-2-ol], the IC50 with IFNγ (Homo sapiens, PBMC) turned out to be 0.85 nM; with IL-4 (Homo sapiens, PBMC) it was 0.61 nM; in assay [1], 0.97 nM; with IL-13 (Homo sapiens, PBMC) it was 132 nM.
For `CCOc1cc(-c2cncc(C3COB(O)C3)n2)ccc1OC` (single isomer, unassigned) [Example 24, 4-(6-(3-ethoxy-4-methoxyphenyl)pyrazin-2-yl)-1,2-oxaborolan-2-ol], in that order: 1.33 nM, 2.24 nM, 0.99 nM and 163 nM.
Turning to `COc1ccc(-c2cccc(C3COB(O)C3)n2)cc1OC` (stereo not shown) [Example 197, 4-(6-(3,4-dimethoxyphenyl)pyridin-2-yl)-1,2-oxaborolan-2-ol], the IC50 was 12.2 nM with IFNγ (Homo sapiens, PBMC); 107 nM in the assay with IL-4 (Homo sapiens, PBMC); 1580 nM with IL-13 (Homo sapiens, PBMC).
